Laboratory results taken from PMC6927504, “Screening of House Dust from Chinese Homes for Chemicals with Liver X Receptors Binding Activities and Characterization of Atherosclerotic Activity Using an in Vitro Macrophage Cell Line and ApoE^−/− Mice” (Environmental Health Perspectives, 2019).

What was measured:
ABCA1 = experiment: qRT-PCR of LXR target gene ABCA1 in RAW264.7 macrophages; assay type: cell-based; conditions: vehicle-treated cells set to 1, p<0.01
Experimental: RAW264.7 cells were obtained from the National Infrastructure of Cell Line Resource of Beijing, China, and the cells used for the experiment were cultured for at least three passages. Dulbecco’s Modified Eagle’s Medium (DMEM)-F12 medium containing 10% fetal bovine serum (FBS) was employed to culture the RAW264.7 cells. RAW264.7 cells were incubated at 37°C with 5% carbon dioxide. The RAW264.7 cells were plated at 2.5×10^5 cells/well (6-well plates), 6.0×10^4 cells/well (24-well plates), and 10^4 cells/well (96-well plates). The RAW264.7 cells were plated and grown overnight; then the medium was removed and fresh DMEM-F12 contained with 0.1% DMSO (control; n=3 ) or TPHP at the concentrations of 1–20,000 nM ( n=3 per group) was added. […] Then the cells were used for the quantitative reverse transcription (qRT)-PCR, cellular cholesterol efflux assay, and foam cell formation experiment.
Total RNA was isolated from RAW264.7 cells and mouse peritoneal macrophages using TRIzol reagent according to the manufacturer’s instructions. Then a Nanovue Plus™ spectrophotometer (GE Healthcare Life Science) was used to analyze the concentration, quality, and purity of the RNA. Total RNA ( 1μg ) was mixed with oligo deoxythymine (dT) ( 1μL ) at 70°C for 5 min and then combined with a mixture containing Moloney murine leukemia virus (MMLV) reverse transcriptase ( 1μL ), deoxy-ribonucleoside triphosphate (dNTP) ( 1.25μL ), Recombinant RNasin® Ribonuclease Inhibitor (Promega) ( 0.65μL ), and MMLV buffer ( 5μL ) at 42°C for 60 min. The SYBR® Green PCR Kit (TOYOBO) was used for RT-PCR analysis. Real-time fluorescence detection was performed using the StepOnePlus™ sequence detection system (Applied Biosystems). […] The following primers were designed and purchased from Sangon Biotech:
• actin: 5′-[…]-3′ and 5′-[…]-3′ ATP-binding cassette transporter A1 (ABCA1): 5′-[…]-3′ and 5′-[…]-3′ • ATP-binding cassette transporter G1 (ABCG1): 5′-[…]-3′ and 5′-[…]-3′.

[1] = test system: mouse peritoneal macrophages; experiment: NBD-cholesterol efflux in peritoneal macrophages isolated from exposed C57BL/6 mice; assay type: in vivo; conditions: 200 mg/kg BW for 7 d
Experimental: RAW264.7 cells or mouse peritoneal macrophages were plated in 96-well plates at 10^4 cells/well and cultured with DMEM-F12 containing 10% FBS and 1μg/mL 22-[N-(7-nitrobenz-2-oxa-1,3-diazol-4-yl)amino]-23,24-bisnor-5-cholen-3β-Ol (NBD-cholesterol) for 24 h. Subsequently, the medium was completely removed and fresh DMEM-F12 containing 10% FBS and 0.1% DMSO (control; n=3 ) or TPHP at the concentration of 1–20,000 nM ( n=3 per group) was added. After a further 24-h incubation, the cells were washed with phosphate-buffered saline (PBS) and then incubated with serum-free medium containing ApoA-I ( 20μg/mL ) or high-density lipoprotein (HDL; 50μg/mL ) for 4 h. Then the medium was collected, and the cells were lysed with a cell lysis buffer. NBD-cholesterol in the medium and cell lysis buffer were measured, respectively, using a Tecan Infinite® M1000Pro Microplate Reader (Tecan Group Ltd.) at 485-nm excitation wavelength and 535-nm emission wavelength. Cholesterol efflux was expressed as a percentage of fluorescence in the medium relative to the total amount of fluorescence.
All experiments related to animals were approved by the institutional animal care and use committee of Peking University and followed the guidelines for animal experiments of the university as well as for experimental animals in China. […] Body weight (BW) was measured every week during the dosing period. […]

## O=P(Oc1ccccc1)(Oc1ccccc1)Oc1ccccc1 [TPHP, triphenyl phosphate]
ABCA1; 5,000 nM
  ABCA1 gene expression relative to control: 0.49±0.06 fold
ABCA1; 10,000 nM
  ABCA1 gene expression relative to control: 0.38±0.01 fold
ABCA1; 20,000 nM
  ABCA1 gene expression relative to control: 0.30±0.03 fold
[1]
  ApoA-I-mediated cholesterol efflux in peritoneal macrophages: Significant inhibition
  HDL-mediated cholesterol efflux in peritoneal macrophages: Significant inhibition
